In PubChem BioAssay (NCI):
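Dose response: 5 concentrations. Exposure: 48 h. Format: 96-well plates. Endpoint: linear interpolation; highest concentration if not reached. Here, GI50 denotes the concentration required for 50% inhibition of growth. TGI: concentration producing complete growth inhibition.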

Key:
Assay in all cases: inhibition of tumour cell growth, NCI panel, 48 h
[1] = test system: EKVX NSCLC
[2] = test system: HCC-2998 colon
[3] = test system: ACHN renal
[4] = test system: NCI-H23 lung
[5] = test system: UACC-62 melanoma
[6] = test system: MOLT-4 leukemia
[7] = test system: UACC-257 melanoma
[8] = test system: SK-OV-3 ovarian
[9] = test system: U251 CNS
[10] = test system: SR leukemia
[11] = test system: HCT-15 colon
[12] = test system: CAKI-1 renal
[13] = test system: MDA-MB-231 breast
[14] = test system: MCF7 breast
[15] = test system: NCI/ADR-RES ovarian
[16] = test system: HS 578T breast
[17] = test system: NCI-H522 lung
[18] = test system: HOP-92 NSCLC
[19] = test system: SK-MEL-2 melanoma
[20] = test system: RPMI-8226 leukemia
[21] = test system: TK-10 renal
[22] = test system: IGROV1 ovarian
[23] = test system: SF-268 CNS
[24] = test system: HL-60(TB) leukemia
[25] = test system: SNB-19 CNS
[26] = test system: OVCAR-8 ovarian
[27] = test system: 786-0 renal

COc1cc(/C=C\c2cc(/C=C\c3ccc(O)c(OC)c3)n(C(=O)Nc3ccc(C(F)(F)F)cc3)n2)ccc1O
GI50 [1]: 3.22 µM | TGI [1]: 38.4 µM | GI50 [2]: 2.04 µM | TGI [2]: 3.82 µM | GI50 [3]: 2.48 µM | TGI [3]: 7.08 µM | GI50 [4]: 2.13 µM | TGI [4]: 6.48 µM | GI50 [5]: 2.02 µM | TGI [5]: 4.76 µM | GI50 [6]: 2.73 µM | TGI [6]: 20 µM | GI50 [7]: 4.01 µM | TGI [7]: 14 µM | GI50 [8]: 4.02 µM | TGI [8]: 66.7 µM | GI50 [9]: 2.49 µM | TGI [9]: 6.86 µM | GI50 [10]: 1.48 µM | TGI [10]: > 100 µM | GI50 [11]: 2.69 µM | TGI [11]: 9.63 µM | GI50 [12]: 3.02 µM | TGI [12]: 12.7 µM | GI50 [13]: 3.06 µM | TGI [13]: 9.62 µM | GI50 [14]: 1.97 µM | TGI [14]: 10.7 µM | GI50 [15]: 3.51 µM | TGI [15]: > 100 µM | GI50 [16]: 5.1 µM | TGI [16]: 60.6 µM | GI50 [17]: 1.78 µM | TGI [17]: 4.65 µM | GI50 [18]: 2.35 µM | TGI [18]: 6.79 µM | GI50 [19]: 3.15 µM | TGI [19]: 17.3 µM | GI50 [20]: 2.09 µM | TGI [20]: 6.59 µM | GI50 [21]: 4.13 µM | TGI [21]: 14.8 µM | GI50 [22]: 2.77 µM | TGI [22]: 11.6 µM | GI50 [23]: 2.8 µM | TGI [23]: 15.4 µM | GI50 [24]: 1.98 µM | TGI [24]: 6.45 µM | GI50 [25]: 3.16 µM | TGI [25]: 11.2 µM | GI50 [26]: 3.33 µM | TGI [26]: > 100 µM | GI50 [27]: 2.42 µM | TGI [27]: 7.52 µM
